For assay [1], the system named is rats having CCl4-induced liver fibrosis. The assay is described as follows: Comparison of therapeutic effect between composition and single component on rats having CCl4-induced liver fibrosis (Example 6). In kind it is in vivo, SD rats. As to conditions: CCl4 model; for ALT (activity of blood serum) / AST (activity of blood serum) / Alb (content of blood serum) / GGT (activity of blood serum) / Hyp (content in liver tissues) / Tbil (content of blood serum): SD rats, three weeks of treatment while modeling, x ± s. An excerpt:
Modeling and grouping: 86 SD rats were randomly divided into a normal group (6) and modeling groups (80). The modeling method was the same as that in Example 2. Six weeks later, 2 rats from the modeling group died. The remaining 78 rats were randomly divided into a model group (12), a Composition A group (11), groups having a single component of Composition A (each group with 11 rats), a first control group of Fuzhenghuayu capsule (11), and a second control group of colchicine (11). The administered dose was the same as those in Example 5. After three weeks of treatment while modeling, the remaining […] rats were anesthetized by intraperitoneal injection of 2% pentobarbital sodium. […] Liver tissue was also collected in centrifuge tubes (1.5 mL) for analyzing. Two liver tissues from a hepatic lobule was collected and immersed in a formalin solution for testing.
Observing index and method: the same as those in Example 5.
The obtained data was expressed as x±s and analysed statistically with software SPSS 12.0 for variance analysis and comparison between groups.

The test system of assay [2] is rats having DMN-induced liver fibrosis. The experiment in a line: Comparison of therapeutic effect between composition and single component on rats having DMN-induced liver fibrosis (Example 5). The format is in vivo, SD rats. Particulars: DMN model; for ALT (activity of blood serum) / AST (activity of blood serum) / GGT (activity of blood serum) / Hyp (content in liver tissues) / Tbil (content of blood serum): gavage, two weeks of treatment, x ± s; for Degree of liver fibrosis S0 (number of rats) / Degree of liver fibrosis S1 (number of rats) / Degree of liver fibrosis S2 (number of rats) / Degree of liver fibrosis S3 (number of rats) / Degree of liver fibrosis S4 (number of rats): HE and Sirius red staining, S0-S4 staging; for Degree of liver fibrosis S0 (number of rats): stage S0; for Degree of liver fibrosis S1 (number of rats): stage S1; for Degree of liver fibrosis S2 (number of rats): stage S2; for Degree of liver fibrosis S3 (number of rats): stage S3; for Degree of liver fibrosis S4 (number of rats): stage S4. An excerpt: Modeling and grouping: 80 SD rats were randomly divided into a normal group (6) and modeling groups (74). The modeling method was the same as that in Example 1. Four weeks later, 4 rats from the modeling group died. The remaining […] rats were randomly divided into a model group, a Composition A group, groups having a single component of Composition A, a first control group of Fuzhenghuayu capsule, and a second control group of colchicines, each group 10 rats. The administered dose of colchicines was 0.1 mg/Kg, Fuzhenghuayu capsule 4.6 g/Kg. The Composition A group was administered Cordyceps sinensis polysaccharide 60 mg/Kg, Gypenoside 50 mg/Kg, and Amygdaloside 80 mg/Kg. The administered dose of the Gypenoside group was 200 mg/Kg, Amygdaloside 80 mg/Kg, and Cordyceps sinensis polysaccharide 60 mg/Kg. Each group was administered by gavage in a volume of 10 mL/Kg. The model group was administered the same volume of drinking water. After two weeks of treatment, the remaining 61 rats were anesthetized by intraperitoneal injection of 2% pentobarbital sodium. […] Liver tissue was also collected in centrifuge tubes (1.5 mL) for analyzing. Two liver tissues from a hepatic lobule was collected and immersed in a formalin solution for testing.
Observing index and method: the content of hydroxyproline (Hyp) in liver tissues (Jamall's method); liver function of blood serum; liver tissues were stained with HE and Sirius red respectively to determine the degree of liver fibrosis according to the S0-S4 staging criteria in literatures.
The obtained data was expressed as x±s and analysed statistically with software SPSS 12.0 for variance analysis and comparison between groups. The comparison of ranked data between groups was performed by Ridit analysis.

Turning to `N#C[C@H](O[C@@H]1O[C@H](CO[C@@H]2O[C@H](CO)[C@@H](O)[C@H](O)[C@H]2O)[C@@H](O)[C@H](O)[C@H]1O)c1ccccc1` [Amygdaloside], in assay [1], the “ALT (activity of blood serum)” value is listed as 220.8 ± 47.4 ## U · ml^−1, the “AST (activity of blood serum)” value is reported as 249.1 ± 47.4 U · ml^−1, the “Alb (content of blood serum)” value was 23.67 ± 2.84 g/L and the “GGT (activity of blood serum)” value amounted to 16.10 ± 6.74 U · ml^−1. In addition, in assay [1], the “Hyp (content in liver tissues)” value is 403 ± 89 # μg · g^−1 liver weight and the “Tbil (content of blood serum)” value is 0.85 ± 0.23 mg/dL. Moreover, in assay [2] (SD rats), the “effect on DMN-induced liver fibrosis (in words)” value is recorded as “can weaken the DMN-induced liver fibrosis”, the “ALT (activity of blood serum)” value turned out to be 55.39 ± 15.56 U · ml^−1, the “AST (activity of blood serum)” value is 69.13 ± 15.74 U · ml^−1 and the “GGT (activity of blood serum)” value was 37.01 ± 19.92 U · ml^−1. In assay [2] (SD rats), the “Hyp (content in liver tissues)” value turned out to be 323 ± 79 μg · g^−1 liver weight and the “Tbil (content of blood serum)” value amounted to 0.95 ± 0.58 mg/dL. For the same compound, in assay [2], the “Degree of liver fibrosis S0 (number of rats)” value stood at 0, the “Degree of liver fibrosis S1 (number of rats)” value was determined as 1, the “Degree of liver fibrosis S2 (number of rats)” value was determined as 4 and the “Degree of liver fibrosis S3 (number of rats)” value is given as 3. In addition, the “Degree of liver fibrosis S4 (number of rats)” value in assay [2] came to 0.
Consider `COc1cc2c(c(OC)c1OC)-c1ccc(OC)c(=O)cc1[C@@H](NC(C)=O)CC2` [Colchicine], for which, in assay [1], the “ALT (activity of blood serum)” value is 192.6 ± 60.9 # U · ml^−1, the “AST (activity of blood serum)” value was 220.9 ± 60.9 # U · ml^−1, the “Alb (content of blood serum)” value is on record as 24.59 ± 2.11 ## g · l^−1 and the “GGT (activity of blood serum)” value is listed as 13.87 ± 9.13 U · ml^−1. Moreover, in assay [1], the “Hyp (content in liver tissues)” value stood at 373 ± 112 μg · g^−1 liver weight and the “Tbil (content of blood serum)” value was 0.74 ± 0.25 mg/dL. In addition, the “collagen fibers, Sirius red staining of liver tissues” value in assay [1] (compared with the model group, FIG. 2) is on record as “decreased as compared with the model group”. Further, in assay [2] (SD rats), the “ALT (activity of blood serum)” value came out at 47.55 ± 17.47 U · ml^−1, the “AST (activity of blood serum)” value is listed as 62.81 ± 13.04 U · ml^−1, the “GGT (activity of blood serum)” value came out at 31.30 ± 17.21 U · ml^−1 and the “Hyp (content in liver tissues)” value is recorded as 300 ± 47 μg · g^−1 liver weight. In addition, the “Tbil (content of blood serum)” value in assay [2] (SD rats) turned out to be 0.86 ± 0.56 mg/dL. Besides, in assay [2], the “Degree of liver fibrosis S0 (number of rats)” value was 0, the “Degree of liver fibrosis S1 (number of rats)” value is 1, the “Degree of liver fibrosis S2 (number of rats)” value was 5 and the “Degree of liver fibrosis S3 (number of rats)” value was determined as 2. Besides, the “Degree of liver fibrosis S4 (number of rats)” value in assay [2] is listed as 0. Further, in assay [2] (compared with the model group, FIG. 1), the “collagen fibers, Sirius red staining of liver tissues” value is reported as “decreased as compared with the model group”.
